Patent US9499493B2, “2,4-pyrimidinediamine compounds and their uses” (Rigel Pharmaceuticals, Inc., priority 2002, dated 2016)

Legend:
[1] = test system: cultured human mast cells (CHMC); assay: CHMC low cell density ionomycin activation: tryptase assay; type: cell-based
[2] = test system: cultured human mast cells (CHMC); assay: CHMC low cell density IgE activation: tryptase assay; type: cell-based; conditions: anti-IgE
Outline: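 Degranulation was triggered with anti-IgE for 30 minutes at 37° C in cultured human mast cells seeded at low density (1000-1500 cells/well, chosen by donor) after a 1 hr equilibration in MT buffer. Released tryptase in cleared supernatant was quantified with a tryptase substrate at room temperature for 30 minutes.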

| Structure (SMILES) | IC50 [1] | IC50 [2] |
| --- | --- | --- |
| CC(C)(C)OC(=O)COc1ccc(Nc2ncc(F)c(Nc3ccc(OCC(=O)OC(C)(C)C)cc3)n2)cc1 [R926574, N2,N4-Bis[4-(tert-butoxycarbonylmethyleneoxy)phenyl]-5-fluoro-2,4-pyrimidinediamine] | 2.63 µM | 1.96 µM |
| CC(C)(C)OC(=O)COc1ccc(Nc2nc(Cl)c(Cl)c(Nc3ccc(OCC(=O)OC(C)(C)C)cc3)n2)cc1 [R926576, N2,N4-Bis(4-tert-butoxyoxycarbonylmethyleneoxyphenyl)-5,6-dichloro-2,4-pyrimidinediamine] | > 10 µM | > 10 µM |
| CCOC(=O)c1cnc(Nc2ccc(OCC(=O)OC)cc2)nc1Nc1ccc(OCC(=O)OC(C)(C)C)cc1 [R926579, N4-(4-tert-Butoxycarbonylmethyleneoxyphenyl)-5-ethoxycarbonyl-N2-(4-methoxycarbonylmethyleneoxyphenyl)-2,4-pyrimidinediamine] | > 10 µM | > 10 µM |
| COC(=O)COc1ccc(Nc2ncc(C(=O)OC)c(Nc3ccc(OCC(=O)OC(C)(C)C)cc3)n2)cc1 [R926580, N4-(4-tert-Butoxycarbonylmethyleneoxyphenyl)-N2-(4-methoxycarbonylmethyleneoxyphenyl)-5-methoxycarbonyl-2,4-pyrimidinediamine] | > 10 µM | 10 µM |
| CCOC(=O)c1cnc(Nc2ccc(OCC(=O)OC)cc2)nc1Nc1ccc(OCC(=O)O)cc1 [R926583, N4-(4-Carboxymethyleneoxyphenyl)-5-ethoxycarbonyl-N2-(4-methoxycarbonylmethyleneoxyphenyl)-2,4-pyrimidinediamine] | > 10 µM | > 10 µM |
| CCOC(=O)c1cnc(Nc2ccc(OCC(=O)O)cc2)nc1Nc1ccc(OCC(=O)OC)cc1 [R926584, N2-(4-Carboxymethyleneoxyphenyl)-5-ethoxycarbonyl-N4-(4-methoxycarbonylmethyleneoxyphenyl)-2,4-pyrimidinediamine] | > 10 µM | > 10 µM |
| C=CCNC(=O)Nc1c(Nc2ccc(OCC(=O)OCC)cc2)nc(Nc2ccc(OCC(=O)OCC)cc2)nc1C(=O)OCC [R926585] | > 10 µM | > 10 µM |
| CCOC(=O)COc1ccc(Nc2nc(Nc3ccc(OCC(=O)OCC)cc3)c(NC(=O)NC(=O)OCC)c(C(=O)OCC)n2)cc1 [R926586, N2,N4-Bis(4-ethoxycarbonylmethyleneoxyphenyl)-6-ethoxycarbonyl-5-(ethoxycarbonylaminocarbonylamino)-2,4-5-pyrimidinetriamine] | > 10 µM | 2.75 µM |
| CCOC(=O)CNC(=O)Nc1c(Nc2ccc(OCC(=O)OCC)cc2)nc(Nc2ccc(OCC(=O)OCC)cc2)nc1C(=O)OCC [R926587, N2,N4-Bis(4-ethoxycarbonylmethyleneoxyphenyl)-6-ethoxycarbonyl-5-(ethoxycarbonylmethyleneaminocarbonylamino)-2,4-pyrimidinediamine] | > 10 µM | > 10 µM |
| CCOC(=O)COc1ccc(Nc2nc(Nc3ccc(OCC(=O)OCC)cc3)c(NC(=O)NC3CCCC3)c(C(=O)OCC)n2)cc1 [R926588, N2,N4-Bis(4-ethoxycarbonylmethyleneoxyphenyl)-6-ethoxycarbonyl-5-(cyclopentylaminocarbonylamino)-2,4-pyrimidinediamine] | > 10 µM | 7.85 µM |
| CSc1nc(Nc2cccc(O)c2)nc(Nc2cccc(O)c2)c1Cl [R926595, N2,N4-Bis(3-hydroxyphenyl)-5-chloro-6-thiomethyl-2,4-pyrimidinediamine] | > 10 µM | 4.85 µM |
| COCc1cc(=O)oc2cc(Nc3ncc(F)c(Nc4ccc5c(COC)cc(=O)oc5c4)n3)ccc12 [R926620] | > 10 µM | 8.35 µM |
| CCOC(=O)COc1ccc(Nc2ncc(F)c(Nc3ccc(OCC(=O)OCC)c(Cl)c3)n2)cc1Cl [R926676, N2,N4-Bis[3-chloro-4-(ethoxycarbonylmethyleneoxy)phenyl]-5-fluoro-2,4-pyrimidinediamine] | > 10 µM | 0.76 µM |
| COCOc1ccc(Nc2nc(Nc3cccc(O)c3)ncc2F)c(F)c1 [R926680, 5-Fluoro-N4-[2-fluoro-4-(methoxymethyleneoxy)phenyl]-N2-(3-hydroxyphenyl)-2,4-pyrimidinediamine] | > 10 µM | 1.71 µM |
| CC1(C)COC(COc2ccc(Nc3ncc(F)c(Nc4cccc(O)c4)n3)cc2)=N1 [R926702, 5-Fluoro-N4-(3-hydroxyphenyl)-N2-[4-[(4,4-dimethyl-3-oxazolin-2-yl)methyleneoxy]phenyl]-2,4-pyrimidinediamine] | > 10 µM | 0.886 µM |
| CNC(=O)COc1ccc(Nc2ncc(F)c(Nc3ccc4c(c3)OCCO4)n2)cc1 [R926708, N4-(3,4-Ethylenedioxyphenyl)-5-fluoro-N2-[4-(N-methylamino)carbonylmethyleneoxyphenyl]-2,4-pyrimidinediamine] | > 10 µM | 0.472 µM |
| Fc1cnc(Nc2ccc(OCCN3CCOCC3)cc2)nc1Nc1ccc2c(c1)OCCO2 [R926709, N4-(3,4-Ethylenedioxyphenyl)-5-fluoro-N2-[4-[2-(N-morpholino)ethyleneoxy]phenyl]-2,4-pyrimidinediamine] | > 10 µM | 0.858 µM |

| Structure (SMILES) | IC50 [1] | IC50 [2] |
| --- | --- | --- |
| Oc1cccc(Nc2ncc(F)c(Nc3ccc(OCCN4CCOCC4)cc3)n2)c1 [R926710, 5-Fluoro-N2-(3-hydroxyphenyl)-N4-[4-[2-(N-morpholino)ethyleneoxy]phenyl]-2,4-pyrimidinediamine] | > 10 µM | 1.76 µM |
| Fc1cnc(Nc2ccc3c(c2)OCCO3)nc1Nc1ccc(OCCN2CCOCC2)cc1 [R926711, N2-(3,4-Ethylenedioxyphenyl)-5-fluoro-N4-[4-[2-(N-morpholino)ethyleneoxy]phenyl]-2,4-pyrimidinediamine] | > 10 µM | 1.25 µM |
| CNC(=O)COc1ccc(Nc2ncc(F)c(Nc3ccc(C(C)(C)C)cc3)n2)cc1 [R926712, N4-(4-tert-Butylphenyl)-5-fluoro-N2-[4-(N-methylamino)carbonylmethyleneoxyphenyl]-2,4-pyrimidinediamine] | > 10 µM | 1.08 µM |
| CNC(=O)COc1cccc(Nc2ncc(F)c(Nc3ccc(C(C)(C)C)cc3)n2)c1 [R926714, N4-(4-tert-Butylphenyl)-5-fluoro-N2-[3-(N-methylamino)carbonylmethyleneoxyphenyl]-2,4-pyrimidinediamine] | > 10 µM | 0.428 µM |
| CN(C)C(=O)c1cc2cc(Nc3ncc(F)c(Nc4cccc(O)c4)n3)ccc2o1 [R926718, 5-Fluoro-N4-(3-hydroxyphenyl)-N2-[2-(N-dimethylamino)carbonylbenzofuran-5-yl]-2,4-pyrimidinediamine] | > 10 µM | 1.83 µM |
| CC(C)(C)c1ccc(Nc2nc(Nc3cccc(OCC(=O)O)c3)ncc2F)cc1 [R926726, N4-(4-tert-Butylphenyl)-N2-(3-carboxymethyleneoxyphenyl)-5-fluor-2,4-pyrimidinediamine] | > 10 µM | > 10 µM |
| CCOC(=O)CSc1ccc(Nc2ncc(F)c(Nc3ccc4c(c3)OCCO4)n2)cn1 [R926727, N2-[2-(Ethoxycarbonylmethylenethio)pyridin-5-yl]-N4-(3,4-ethylenedioxyphenyl)-5-fluoro-2,4-pyrimidinediamine] | > 10 µM | 0.387 µM |
| CC(C)(C)c1ccc(Nc2nc(Nc3cccc(OCCO)c3)ncc2F)cc1 [R926728] | > 10 µM | 0.482 µM |
| CNC(=O)COc1cccc(Nc2ncc(F)c(Nc3ccc(OC(C)C)cc3)n2)c1 [R926730, 5-Fluoro-N4-(4-isopropoxyphenyl)-N2-[3-(N-methylamino)carbonylmethyleneoxyphenyl]-2,4-pyrimidinediamine] | > 10 µM | 0.251 µM |
| CC(C)Oc1ccc(Nc2nc(Nc3cccc(OCC(=O)O)c3)ncc2F)cc1 [R926731, 5-Fluoro-N2-[3-(carboxymethyleneoxy)phenyl]-N4-[4-(isopropoxy)phenyl]-2,4-pyrimidinediamine] | > 10 µM | > 10 µM |
| CNC(=O)COc1cccc(Nc2ncc(F)c(Nc3ccc4c(c3)OC(F)(F)C(F)(F)O4)n2)c1 [R926732, 5-Fluoro-N4-[3,4-(1,1,2,2-tetrafluoroethylendioxy)phenyl]-N2-[3-(N-methylamino)carbonylmethyleneoxyphenyl]-2,4-pyrimidinediamine] | > 10 µM | 0.444 µM |
| CNC(=O)COc1cccc(Nc2ncc(F)c(Nc3ccc(OC)c(OC)c3)n2)c1 [R926733, N4-(3,4-Dimethoxyphenyl)-5-fluoro-N2-[3-(N-methylamino)carbonylmethyleneoxyphenyl]-2,4-pyrimidinediamine] | > 10 µM | 1.5 µM |
| COc1ccc(Nc2nc(Nc3cccc(OCC(=O)NCC(O)CO)c3)ncc2F)cc1OC (centres unmarked) [R926734, N2-[3-(N-2,3-Dihydroxypropylamino)carbonylmethyleneoxyphenyl]-N4-(3,4-dimethoxyphenyl)-5-fluoro-2,4-pyrimidinediamine] | > 10 µM | 4.49 µM |
| OCCOc1cccc(Nc2ncc(CO)c(Nc3cccc(O)c3)n2)c1 [R926735, 5-(Hydroxymethyl)-N2-[3-(2-hydroxyethyleneoxy)phenyl]-N4-(3-hydroxyphenyl)-2,4-pyrimidinediamine] | > 10 µM | 3.71 µM |
| CNC(=O)COc1cccc(Nc2ncc(F)c(Nc3cccc(OC)c3)n2)c1 [R926738, 5-Fluoro-N4-(3-methoxyphenyl)-N2-[3-(N-methylamino)carbonylmethyleneoxyphenyl]-2,4-pyrimidinediamine] | > 10 µM | 0.342 µM |
| COc1cccc(Nc2nc(Nc3cccc(OCC(=O)NCC(O)CO)c3)ncc2F)c1 (centres unmarked) [R926739, N2-[3-(N-2,3-Dihydroxypropylamino)carbonylmethyleneoxyphenyl]-5-fluoro-N4-(3-methoxyphenyl)-2,4-pyrimidinediamine] | > 10 µM | 0.508 µM |
| CCOC(=O)COc1ccc(Nc2ncc(F)c(Nc3ccc4c(c3)OCCO4)n2)cn1 [R926740, N2-[2-(Ethoxycarbonylmethyleneoxy)pyridin-5-yl]-N4-(3,4-ethylenedioxyphenyl)-5-fluoro-2,4-pyrimidinediamine] | > 10 µM | 4.42 µM |
